Values joined by “and” are separate entries in the source; they are usually repeats but may differ in a detail not shown here. Identical values can stand only once.
Assays:
Assay type in all cases: in vivo
Helicoverpa armigera = assay: Diet incorporation method against Helicoverpa armigera (Example A); conditions: single compound, 96 h
Procedure: The diet incorporation method was used, in which semi-synthetic diet was incorporated into the test solutions consisting either of the single compounds or respective compound combinations, when the temperature was approximately 50° C. in the bio-assay containers, then stirred thoroughly for proper mixing and allowed to cool for 30 min. The solidified diet was cut into equal pieces, and then each piece was transferred into one cell of a bio-assay tray. A single starved third instar larva was released into each of these cells of the bio-assay trays and the tray was covered with a lid. The bio-assay trays were kept under laboratory conditions at a temperature of 25° C. and relative humidity of 70%. Observations on dead, moribund and live larvae were recorded 96 h after the release of the larvae. Percent mortality was calculated by combining dead and moribund larvae and comparing the result to the one of the untreated control. The results are shown for the compound of formula (I-III) in Table A.

Phakopsora pachyrhizi = assay: Preventive glasshouse test against Phakopsora pachyrhizi in soybean (Example H); conditions: single compound
Procedure: The single compounds or the respective compound combinations were dissolved in 2% dimethyl sulfoxide/acetone and then mixed with water containing an emulsifier to a calibrated spray volume of 50 ml. The test solutions were poured into spray bottles for further applications.
To test the preventive activity of compounds, healthy young Soybean plants, raised in the greenhouse, were sprayed with the active compound preparation at the stated application rates inside the spray cabinets using hollow cone nozzles. One day after treatment, the plants were inoculated with a suspension containing 2×10^5 Phakopsora pachyrhizi conidia. The inoculated plants were then kept in a greenhouse chamber at a temperature of 22-24° C. and 80-90% relative humidity for disease expression.
A visual assessment of the performance of the single compounds and respective compound combinations was carried out by rating the disease severity (0-100% scale) on treated plants 3, 7, 10 and 15 days after application. Efficacy (% control) of the compounds was calculated by comparing the disease rating in the treatment with the one of the untreated control. The compounds were also assessed for their plant compatibility by recording symptoms like necrosis, chlorosis and stunting. The results have been described for the compound of formula (I-III) in Table H.

Alternaria solani = assay: Preventive glasshouse test against Alternaria solani in tomato (Example G); conditions: single compound
Procedure: (§1) The single compounds or respective compound combinations were dissolved in 2% dimethyl sulfoxide/acetone and then mixed with water containing emulsifier to a calibrated spray volume of 50 mL. The test solutions were poured into spray bottles for further applications.
To test the preventive activity, healthy young tomato plants, raised in the greenhouse, were sprayed with the active compound preparation at the stated application rates inside the spray cabinets using hollow cone nozzles. One day after treatment, the plants were inoculated with a spore suspension containing 0.24×10^6 Alternaria solani inoculum and 2% Malt. The inoculated plants were then kept in a greenhouse chamber at a temperature of 22-24° C. and 90-95% relative humidity for disease expression.
(§2) A visual assessment of the performance of the single compounds or compound combinations was carried out by rating the disease severity (0-100% scale) on treated plants 3, 7, 10 and 15 days after application. Efficacy (% control) of the single compounds and mixtures was calculated by comparing the disease rating in the treatment with the one of the untreated control. The compounds were also assessed for their plant compatibility by recording symptoms like necrosis, chlorosis and stunting. The results have been described for the compound of formula (I-III) in Table G.

Spodoptera litura = assay: Diet incorporation method against Spodoptera litura (Example B); conditions: single compound, 96 h
Procedure: The diet incorporation method was used, in which semi-synthetic diet was incorporated into the test solution consisting either of the single compound or respective compound combinations, when the temperature was approximately 50° C. in the bioassay containers, then stirred thoroughly for proper mixing and allowed to cool for 30 min. The solidified diet was cut into equal pieces, and then each piece was transferred into one cell of the bio-assay trays. A single starved third instar larva was released into each of these cells of the bio-assay trays and the tray was covered with a lid. The bio-assay trays were kept under laboratory conditions at a temperature of 25° C. and relative humidity of 70%. Observations on dead, moribund and live larvae were recorded 96 h after the release. Percent mortality was calculated by combining dead and moribund larvae and comparing the result with the one of the untreated control. The results are shown for the compound of formula (I-III) in Table B.

Erysiphe cichoracearum = assay: Preventive glasshouse test against Erysiphe cichoracearum in cucumber (Example K); conditions: single compound
Procedure: The single compounds or the respective compound combinations were dissolved in 2% dimethyl sulfoxide/acetone and then mixed with water containing emulsifier to a calibrated spray volume of 50 mL. The test solutions were poured into spray bottles for further applications.
To test the preventive activity of compounds, healthy young cucumber plants, raised in the greenhouse, were sprayed with the active compound preparation at the stated application rates inside the spray cabinets using hollow cone nozzles. One day after treatment, the plants were inoculated with a conidial suspension containing 2×10^5 Erysiphe cichoracearum inoculum. The inoculated plants were then kept in a greenhouse chamber at a temperature of 22-24° C. and 50-60% relative humidity for disease expression.
A visual assessment of the performance of the compounds and the respective compound combinations was carried out by rating the disease severity (0-100% scale) on treated plants 3, 7, 10 and 15 days after application. Efficacy (% control) of the single compounds or compound combinations was calculated by comparing the disease rating in the treatment with the one of the untreated control. The compounds were also assessed for their plant compatibility by recording symptoms like necrosis, chlorosis and stunting. The results have been described for the compound of formula (I-III) in Table K.

Septoria nodorum = assay: Preventive glasshouse test against Parastagonospora nodorum/Septoria nodorum/Stagnospora nodorum in wheat (Example J); conditions: single compound
Procedure: as §1
To test the preventive activity of compounds, healthy young wheat plants, raised in the greenhouse, were sprayed with the active compound preparation at the stated application rates inside the spray cabinets using hollow cone nozzles. One day after treatment, the plants were inoculated with a spore suspension containing 2.8×10^6 Stagnospora nodorum inoculum.
The inoculated plants were then kept in a greenhouse chamber at 22-25° C. temperature and 90-100% relative humidity for disease expression.
as §2, with “J.” for “G.”

Pyricularia oryzae = conditions: single compound, 0.05 ppm, preventive, rice
[1] = Helicoverpa armigera, 100 ppm, read-out: Observed Efficacy (%)
[2] = Spodoptera litura, 100 ppm, read-out: Observed Efficacy (%)
[3] = Spodoptera litura, 200 ppm, read-out: Observed Efficacy (%)

| SMILES | pest or weed control at 100 ppm (Helicoverpa armigera; [1]) [%] | Observed Efficacy (%) (Alternaria solani; 0.05 ppm) | Observed Efficacy (%) (Alternaria solani; 0.1 ppm) | pest or weed control at 100 ppm (Spodoptera litura; [2]) [%] | pest or weed control at 200 ppm (Spodoptera litura; [3]) [%] | Observed Efficacy (%) (Erysiphe cichoracearum; Conc. 0.05 ppm) | Observed Efficacy (%) (Spodoptera litura; 100 ppm) | Observed Efficacy (%) (Spodoptera litura; 200 ppm) | Observed Efficacy (%) (Spodoptera litura; 500 ppm) | Observed Efficacy (%) (Helicoverpa armigera; 100 ppm) | Observed Efficacy (%) (Phakopsora pachyrhizi; 10.0 ppm) | Observed Efficacy (%) (Erysiphe cichoracearum; Conc. 10 ppm) | also measured |
| --- | --- | --- | --- | --- | --- | --- | --- | --- | --- | --- | --- | --- | --- |
| COC(=O)N(OC)c1ccccc1COc1ccn(-c2ccc(Cl)cc2)n1 [Pyraclostrobin] | 0 | 26 | 26 | 12.5 | 12.5 | 29 | – | – | – | – | – | – | Observed Efficacy (%) (Phakopsora pachyrhizi; 0.05 ppm): 39%; pest or weed control at 500 ppm (Spodoptera litura; Spodoptera litura, 500 ppm, read-out: Observed Efficacy (%)): 12.5% |
| Cn1cc(C(=O)Nc2ccccc2-c2cc(F)c(F)c(F)c2)c(C(F)F)n1 [Fluxapyroxad] | – | 14 | 26 | – | – | 29 | 0 | 0 | 0 | – | – | – | Observed Efficacy (%) (Septoria nodorum; 0.05 ppm): 12%; Observed Efficacy (%) (Septoria nodorum; 0.1 ppm): 29% |
| N#Cc1ccccc1NC(=O)c1snc(Cl)c1Cl [Isotianil] | – | – | – | – | – | – | 0 | 0 | – | 0 | 31 | 51 | Observed Efficacy (%) (Helicoverpa armigera; 200 ppm): 25%; Observed Efficacy (%) (Phakopsora pachyrhizi; 50.0 ppm): 41%; Observed Efficacy (%) (Erysiphe cichoracearum; Conc. 50 ppm): 57% |
| CO/C=C(/C(=O)OC)c1ccccc1Oc1cc(Oc2ccccc2C#N)ncn1 [Azoxystrobin] | – | 26 | 40 | – | – | 26 | 0 | – | 0 | 0 | – | – | Observed Efficacy (%) (Helicoverpa armigera; 500 ppm): 0%; Observed Efficacy (%) (Pyricularia oryzae): 30%; Observed Efficacy (%) (Erysiphe cichoracearum; Conc. 0.1 ppm): 43% |
| O=C(NCCc1ncc(C(F)(F)F)cc1Cl)c1ccccc1C(F)(F)F [Fluopyram] | – | – | – | 0 | – | – | – | – | – | – | – | – | Observed Efficacy (%) (Septoria nodorum; 10 ppm): 25%; pest or weed control at 50 ppm (Helicoverpa armigera; Helicoverpa armigera, 50 ppm, read-out: Observed Efficacy (%)): 0%; Observed Efficacy (%) (Alternaria solani; 10 ppm): 67% |
| C=CCOC1=NS(=O)(=O)c2ccccc21 [Probenazole] | 0 | – | – | 12.5 | 0 | – | – | – | – | – | 28 | 22 | Observed Efficacy (%) (Phakopsora pachyrhizi; 2.0 ppm): 22%; Observed Efficacy (%) (Erysiphe cichoracearum; Conc. 2 ppm): 15% and 16% |

Source: patent US20230276804A1, “A PESTICIDALLY ACTIVE MIXTURE COMPRISING PYRAZOLOPYRIDINE ANTHRANILAMIDE COMPOUND, OXIDES OR SALTS THEREOF” (priority 2020, published 2023)
